# “Also recorded” adds a separate entry of the source.
# What was measured:
# Assay type in all cases: in vivo
# [1] = tested on: PPARα, CD36, intra-myocardial triacylglycerol; assay: Assessment of lipid metabolism in HF-fed mice; settings: for Gene expression PPAR alpha: HF diet, real time RT-PCR
# Source text: Adult (8-week-old) male […] mice (Precinct Animal Centre, Melbourne, Australia) and RAGE knockout (KO) mice^17 ([…] al., J Clin Invest. 113:1641-50, 2004) were housed in a temperature-controlled room on a 12-h light-dark cycle. Mice were placed on either a standard diet (AIN-93G; Specialty feeds, Perth AUS; n=10/group) or a high fat (HF) diet formulated to mimic a “Western fast food diet”, (SF05-031, Specialty Feeds; n=10). Both diets contained the same vitamin and calorie content. […] Animals receiving a HF diet were further randomized to receive alagebrium chloride at a dose of 1 mg/kg/day delivered by oral gavage. All groups were followed for 16 weeks. Changes in myocardial energy metabolism, due to altered substrate handling, characterize obesity-related cardiac disease^5 (Boudina and Abel, Circulation 115:3213-23, 2007). In particular, intra-myocardial accumulation of triacylglycerol metabolites mediated by activation of peroxisome proliferator activated receptor α(PPARα) has been strongly associated with cardiac dysfunction in rodents fed a HF diet^20 (Ouwens et al., Diabetologia 48:1229-37, 2005). To assess the interaction of AGE/RAGE with lipotoxicity pathways in this model, the ventricular expression of PPARα and the fatty acid translocase, CD36, were assessed by real-time quantitative RT-PCR. Intra-myocardial accumulation of triacylglycerol metabolites was assessed by staining with Oil red-O in frozen cardiac sections and quantitated in cardiac homogenates extracted using the method of Bligh and Dyer and measured using a standard commercial enzymatic assay.
# [2] = tested on: myocardial inflammation (IL-6, TNF α, ICAM-1, MCP-1, NF-κBp65); assay: Assessment of myocardial inflammation in HF-fed mice; settings: HF diet, real time RT-PCR
# Source text: Adult (8-week-old) male […] mice (Precinct Animal Centre, Melbourne, Australia) and RAGE knockout (KO) mice^17 ([…] al., J Clin Invest. 113:1641-50, 2004) were housed in a temperature-controlled room on a 12-h light-dark cycle. Mice were placed on either a standard diet (AIN-93G; Specialty feeds, Perth AUS; n=10/group) or a high fat (HF) diet formulated to mimic a “Western fast food diet”, (SF05-031, Specialty Feeds; n=10). Both diets contained the same vitamin and calorie content. […] Animals receiving a HF diet were further randomized to receive alagebrium chloride at a dose of 1 mg/kg/day delivered by oral gavage. All groups were followed for 16 weeks. The expression of inflammatory cytokines, tumor necrosis factor (TNFα), interleukin-6 (IL-6), along with macrophage infiltration, is augmented following cardiac stress. The gene expression of IL-6, TNF α, the adhesion molecule, ICAM-1 and the chemokine, […] (MCP-1) in left ventricular homogenates were assessed by real-time quantitative RT-PCR. The myocardial expression of IL-6 protein was further quantitated by ELISA.
# [3] = tested on: cardiac hypertrophy (β-MHC, α-MHC); assay: Assessment of cardiac hypertrophy in HF-fed mice; settings: HF diet; for Mean myocyte diameter / Total LV mass / Total cardiac mass: 1 mg/kg/day oral gavage; for Gene expression Alpha MHC / Gene expression Beta MHC: real time RT-PCR
# Source text: Adult (8-week-old) male […] mice (Precinct Animal Centre, Melbourne, Australia) and RAGE knockout (KO) mice^17 ([…] al., J Clin Invest. 113:1641-50, 2004) were housed in a temperature-controlled room on a 12-h light-dark cycle. Mice were placed on either a standard diet (AIN-93G; Specialty feeds, Perth AUS; n=10/group) or a high fat (HF) diet formulated to mimic a “Western fast food diet”, (SF05-031, Specialty Feeds; n=10). Both diets contained the same vitamin and calorie content. […] Animals receiving a HF diet were further randomized to receive alagebrium chloride at a dose of 1 mg/kg/day delivered by oral gavage. All groups were followed for 16 weeks. The total cardiac and isolated left ventricular mass was measured at sacrifice, and expressed adjusted for body surface area in square meters (m^2). […] Cardiac hypertrophy in obesity reactivates the fetal gene program, characterized by a switch to β-Myosin heavy chain (β-MHC) expression in the adult murine heart^8 (Ng et al., Circ Res. 68:1742-50, 1991). Gene expression of markers of pathological hypertrophy, β-MHC and α-MHC were assessed by real-time quantitative RT-PCR. This was performed using the TaqMan system based on real-time detection of accumulated fluorescence, as previously described^19 (Thomas et al., J Am Soc Nephrol. 16:2976-84, 2005). Gene expression was normalized to 18S mRNA and reported as ratios compared to the level of expression in untreated control mice, which were given the arbitrary value of one.
# [4] = Physiological and biochemical parameters in HF-fed mice; settings: HF diet, 1 mg/kg/day oral gavage; for Weight gain (% baseline): 16 weeks
# Source text: Adult (8-week-old) male […] mice (Precinct Animal Centre, Melbourne, Australia) and RAGE knockout (KO) mice^17 ([…] al., J Clin Invest. 113:1641-50, 2004) were housed in a temperature-controlled room on a 12-h light-dark cycle. Mice were placed on either a standard diet (AIN-93G; Specialty feeds, Perth AUS; n=10/group) or a high fat (HF) diet formulated to mimic a “Western fast food diet”, (SF05-031, Specialty Feeds; n=10). Both diets contained the same vitamin and calorie content. […] Animals receiving a HF diet were further randomized to receive alagebrium chloride at a dose of 1 mg/kg/day delivered by oral gavage. All groups were followed for 16 weeks. The following parameters were serially measured in all groups: body weight; blood glucose, measured using a glucometer; systolic blood pressure, measured by tail-cuff plethysmography in conscious, warmed mice.
# [5] = Wild-type mice, listed as AL, 1 mg/kg/day
compound,measurement,setting,value
"Cc1sc[n+](CC(=O)c2ccccc2)c1C.[Cl-] [alagebrium chloride, 3-(2-phenyl-2-oxoethyl)-4,5-dimethylthiazolium chloride]","intramyocardial accumulation of lipid (Oil-red O staining, cardiac triglyceride content)",[1]; HF-fed mice (FIG. 1),unaffected
same,"Expression of the fatty acid translocase, CD36","[1]; HF-fed mice, RT-PCR",similar
same,Gene expression PPAR alpha,[1]; RAGE KO mice,reduced
same,Gene expression PPAR alpha,"[1]; RAGE KO mice, listed as AL",1.2 ± 0.3 AU/18s
same,Gene expression PPAR alpha,[1]; Wild-type mice,reduced
same,Gene expression PPAR alpha,"[1]; Wild-type mice, listed as AL",1.9 ± 0.4 AU/18s
same,Gene expression ICAM-1 (%),[2]; RAGE KO mice,reduced
same,Gene expression Interleukin-6 (%),[2]; RAGE KO mice,no significant effect
same,Gene expression MCP-1 (%),[2]; RAGE KO mice,reduced
same,Gene expression P-65 (%),[2]; RAGE KO mice,0.3 ± 0.1 AU/18s
same,Gene expression TNF-alpha (%),[2]; RAGE KO mice,no significant effect
same,Gene expression ICAM-1 (%),"[2]; RAGE KO mice, listed as AL",0.2 ± 0.1 AU/18s
same,Gene expression Interleukin-6 (%),"[2]; RAGE KO mice, listed as AL",0.4 ± 0.1 AU/18s
same,Gene expression MCP-1 (%),"[2]; RAGE KO mice, listed as AL",0.2 ± 0.1 AU/18s
same,Gene expression TNF-alpha (%),"[2]; RAGE KO mice, listed as AL",0.4 ± 0.1 AU/18s
same,Gene expression ICAM-1 (%),[2]; Wild-type mice,reduced; also recorded: prevented
same,Gene expression Interleukin-6 (%),[2]; Wild-type mice,reduced; also recorded: prevented
same,Gene expression MCP-1 (%),[2]; Wild-type mice,reduced
same,Gene expression TNF-alpha (%),[2]; Wild-type mice,reduced; also recorded: prevented
same,Gene expression ICAM-1 (%),"[2]; Wild-type mice, listed as AL",0.2 ± 0.1 AU/18s
same,Gene expression Interleukin-6 (%),"[2]; Wild-type mice, listed as AL",0.2 ± 0.1 AU/18s
same,Gene expression MCP-1 (%),"[2]; Wild-type mice, listed as AL",0.4 ± 0.1 AU/18s
same,Gene expression P-65 (%),"[2]; Wild-type mice, listed as AL",0.8 ± 0.2 AU/18s
same,Gene expression TNF-alpha (%),"[2]; Wild-type mice, listed as AL",0.5 ± 0.2 AU/18s
same,Gene expression P-65 (%),"[2]; Wild-type mice, listed as alagebirum chloride",prevented
same,Mean myocyte diameter,[3]; RAGE KO mice,19.5 ± 0.6 μm
same,Total LV mass,[3]; RAGE KO mice,9.7 ± 0.3 g/m^2
same,Total cardiac mass,[3]; RAGE KO mice,13.7 ± 0.6 g/m^2
same,Gene expression Alpha MHC,[3]; RAGE KO mice,reduced
same,Gene expression Beta MHC,[3]; RAGE KO mice,1.6 ± 0.2 AU/18s
same,Gene expression Alpha MHC,"[3]; RAGE KO mice, listed as AL",0.6 ± 0.2 AU/18s
same,Total LV mass,[3]; Wild-type mice,9.5 ± 0.3 g/m^2
same,Total cardiac mass,[3]; Wild-type mice,14.5 ± 0.4 g/m^2
same,Mean myocyte diameter,"[3]; Wild-type mice, 1 mg/kg/day",no effect
same,Mean myocyte diameter,[3]; [5],19.7 ± 0.8 μm
same,Gene expression Alpha MHC,[3]; Wild-type mice,reduced
same,Gene expression Beta MHC,[3]; Wild-type mice,no effect
same,Gene expression Alpha MHC,"[3]; Wild-type mice, listed as AL",0.7 ± 0.2 AU/18s
same,Gene expression Beta MHC,"[3]; Wild-type mice, listed as AL",2.5 ± 0.3 AU/18s
same,Glucose,[4]; RAGE KO mice,13.7 ± 0.7 mmol/L
same,Weight gain (% baseline),[4]; RAGE KO mice,44 ± 7 % baseline
same,Weight gain (% baseline),"[4]; Wild-type mice, 1 mg/kg/day",reduced
same,Weight gain (% baseline),[4]; [5],27 ± 2 % baseline
same,Glucose,"[4]; Wild-type mice, 1 mg/kg/day",equivalent changes
same,Glucose,[4]; [5],15.1 ± 0.5 mmol/L
